By IC50 is commonly meant the concentration that inhibits the measured activity by half.

Some results are limits rather than exact numbers.

The source of these data is ChEMBL document CHEMBL4334516, “Kinase Chemodiversity from the Arctic: The Breitfussins” (J Med Chem, 2019).

One experiment has as its system MCF7. The experiment in a line: Cytotoxicity in human MCF7 cells assessed as reduction in cell viability incubated for 72 hrs by MTS assay. The format is functional, cell-based. Particulars: MCF7, 72 h.
For the next experiment, the system named is MDA-MB-468. The experiment in a line: Cytotoxicity in human MDA-MB-468 cells assessed as reduction in cell viability incubated for 72 hrs by MTS assay. The format is functional, cell-based. Particulars: MDA-MB-468, 72 h. Background: Tetrazolium dyes change colour on reduction, which living cells bring about.
The next experiment has as its system SK-BR-3. The experiment in a line: Cytotoxicity in human SK-BR-3 cells assessed as reduction in cell viability incubated for 72 hrs by MTS assay. The format is functional, cell-based. Particulars: SK-BR-3, 72 h.
A further experiment relates to HT-29. As to the kind of experiment: Cytotoxicity in human HT-29 cells assessed as reduction in cell viability incubated for 72 hrs by MTS assay. The format is functional, cell-based. Particulars: HT-29, 72 h.
A further experiment concerns MOLT-4. The experiment in a line: Cytotoxicity in human MOLT4 cells assessed as reduction in cell viability incubated for 72 hrs by MTS assay. In kind it is functional, cell-based. Particulars: MOLT-4, 72 h.
The test system of the next experiment is MV4-11. The experiment in a line: Cytotoxicity in human MV4-11 cells assessed as reduction in cell viability incubated for 72 hrs by MTS assay. In kind it is functional, cell-based. Particulars: MV4-11, 72 h.
In the next experiment the test system is A2058. The experiment in a line: Cytotoxicity in human A2058 cells assessed as reduction in cell viability incubated for 72 hrs by MTS assay. Particulars: A2058, 72 h. In kind it is functional, cell-based.
The subject of a further experiment is MRC5. The experiment in a line: Cytotoxicity in human MRC5 cells assessed as reduction in cell viability incubated for 72 hrs by MTS assay. Particulars: MRC5, 72 h. In kind it is cell-based.
Experiment [1] concerns the target Dual specificity tyrosine-phosphorylation-regulated kinase 1A (Homo sapiens, UniProt Q13627). As to the kind of experiment: Inhibition of DYRK1A (unknown origin) by [33P]-ATP filter binding kinase assay.
Experiment [2] concerns the target T1, Mitogen-activated protein kinase 15 (Homo sapiens, UniProt Q8TD08).
T1 sequence (Q8TD08 whole entry): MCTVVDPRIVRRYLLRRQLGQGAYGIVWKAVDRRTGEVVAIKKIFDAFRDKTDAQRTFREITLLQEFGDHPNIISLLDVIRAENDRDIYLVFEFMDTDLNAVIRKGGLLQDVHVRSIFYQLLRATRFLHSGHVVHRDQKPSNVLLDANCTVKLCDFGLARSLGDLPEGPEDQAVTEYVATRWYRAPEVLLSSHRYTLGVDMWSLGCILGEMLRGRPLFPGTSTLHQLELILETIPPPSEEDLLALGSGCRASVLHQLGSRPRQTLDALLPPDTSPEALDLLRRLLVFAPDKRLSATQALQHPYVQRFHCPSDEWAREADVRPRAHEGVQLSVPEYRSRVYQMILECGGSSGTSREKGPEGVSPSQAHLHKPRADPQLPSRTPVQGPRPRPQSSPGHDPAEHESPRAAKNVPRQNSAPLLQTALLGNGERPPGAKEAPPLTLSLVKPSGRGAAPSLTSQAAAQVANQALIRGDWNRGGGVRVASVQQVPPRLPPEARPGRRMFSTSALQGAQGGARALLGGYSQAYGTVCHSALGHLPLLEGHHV
As to the kind of experiment: Inhibition of ERK8 (unknown origin) by [33P]-ATP filter binding kinase assay.

The target of experiment [3] is Serine/threonine-protein kinase pim-1 (Homo sapiens, UniProt P11309). The experiment in a line: Inhibition of PIM1 (unknown origin) by [33P]-ATP filter binding kinase assay.
Chain of Serine/threonine-protein kinase pim-1 (P11309 whole entry): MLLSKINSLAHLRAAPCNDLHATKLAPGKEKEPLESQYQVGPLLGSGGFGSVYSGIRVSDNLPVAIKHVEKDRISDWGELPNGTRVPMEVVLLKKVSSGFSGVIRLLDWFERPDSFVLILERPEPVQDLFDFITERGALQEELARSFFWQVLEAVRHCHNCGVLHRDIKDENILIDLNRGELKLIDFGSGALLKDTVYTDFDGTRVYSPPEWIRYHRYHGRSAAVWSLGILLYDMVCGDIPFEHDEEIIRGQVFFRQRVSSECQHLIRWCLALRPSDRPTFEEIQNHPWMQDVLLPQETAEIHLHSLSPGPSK
The target of experiment [4] is Serine/threonine-protein kinase pim-2 (Homo sapiens, UniProt Q9P1W9). As to the kind of experiment: Inhibition of PIM2 (unknown origin) by [33P]-ATP filter binding kinase assay.
Chain of Serine/threonine-protein kinase pim-2 (Q9P1W9 whole entry): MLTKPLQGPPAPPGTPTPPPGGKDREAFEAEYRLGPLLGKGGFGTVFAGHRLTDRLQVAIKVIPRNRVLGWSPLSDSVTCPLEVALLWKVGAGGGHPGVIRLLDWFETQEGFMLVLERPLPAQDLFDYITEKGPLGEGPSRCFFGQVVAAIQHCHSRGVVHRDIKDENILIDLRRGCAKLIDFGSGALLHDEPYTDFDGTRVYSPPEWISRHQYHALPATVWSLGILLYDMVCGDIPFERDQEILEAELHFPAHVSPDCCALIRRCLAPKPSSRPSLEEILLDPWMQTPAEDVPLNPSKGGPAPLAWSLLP
Experiment [5] concerns the target Serine/threonine-protein kinase pim-3 (Homo sapiens, UniProt Q86V86). The experiment in a line: Inhibition of PIM3 (unknown origin) by [33P]-ATP filter binding kinase assay.
The target of experiment [6] is Serine/threonine-protein kinase SIK3 (Homo sapiens, UniProt Q9Y2K2). As to the kind of experiment: Inhibition of SIK3 (unknown origin) by [33P]-ATP filter binding kinase assay.
Chain of Serine/threonine-protein kinase SIK3 (Q9Y2K2 whole entry): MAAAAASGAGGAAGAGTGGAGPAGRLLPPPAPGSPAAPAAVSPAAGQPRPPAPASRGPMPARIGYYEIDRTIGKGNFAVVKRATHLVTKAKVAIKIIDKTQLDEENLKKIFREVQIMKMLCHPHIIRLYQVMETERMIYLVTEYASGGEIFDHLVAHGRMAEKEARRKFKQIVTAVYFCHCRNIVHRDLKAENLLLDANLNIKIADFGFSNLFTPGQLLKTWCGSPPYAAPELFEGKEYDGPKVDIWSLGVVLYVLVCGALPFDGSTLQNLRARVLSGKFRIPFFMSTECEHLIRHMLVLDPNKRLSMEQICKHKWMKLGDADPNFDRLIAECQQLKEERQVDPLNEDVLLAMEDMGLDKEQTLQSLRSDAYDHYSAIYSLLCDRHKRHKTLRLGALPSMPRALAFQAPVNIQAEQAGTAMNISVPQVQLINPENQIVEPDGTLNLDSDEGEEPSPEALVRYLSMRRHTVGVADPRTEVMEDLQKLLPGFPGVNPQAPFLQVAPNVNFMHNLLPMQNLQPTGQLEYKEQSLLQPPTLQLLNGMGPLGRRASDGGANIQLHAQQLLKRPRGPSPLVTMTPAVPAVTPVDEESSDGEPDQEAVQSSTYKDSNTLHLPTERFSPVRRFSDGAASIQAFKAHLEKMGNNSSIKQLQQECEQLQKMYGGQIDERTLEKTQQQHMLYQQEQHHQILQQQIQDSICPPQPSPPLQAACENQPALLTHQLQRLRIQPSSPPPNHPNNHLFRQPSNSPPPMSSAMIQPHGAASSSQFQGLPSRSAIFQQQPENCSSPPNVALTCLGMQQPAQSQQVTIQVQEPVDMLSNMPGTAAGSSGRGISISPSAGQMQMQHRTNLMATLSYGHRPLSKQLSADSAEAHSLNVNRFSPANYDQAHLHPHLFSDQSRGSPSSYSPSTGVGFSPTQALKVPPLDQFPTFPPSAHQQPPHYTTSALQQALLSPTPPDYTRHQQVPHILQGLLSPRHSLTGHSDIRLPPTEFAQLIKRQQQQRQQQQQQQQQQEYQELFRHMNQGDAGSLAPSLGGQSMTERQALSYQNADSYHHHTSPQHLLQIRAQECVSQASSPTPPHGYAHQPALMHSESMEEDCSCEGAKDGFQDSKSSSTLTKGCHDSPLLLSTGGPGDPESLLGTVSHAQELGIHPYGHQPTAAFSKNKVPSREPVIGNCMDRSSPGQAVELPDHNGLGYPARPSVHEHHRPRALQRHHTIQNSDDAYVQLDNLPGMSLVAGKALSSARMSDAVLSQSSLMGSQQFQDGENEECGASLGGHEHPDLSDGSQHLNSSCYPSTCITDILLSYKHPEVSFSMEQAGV
For experiment [7], the target named is T2, Mitogen-activated protein kinase kinase kinase kinase 2 (Homo sapiens, UniProt Q12851).
T2 sequence (Q12851 whole entry): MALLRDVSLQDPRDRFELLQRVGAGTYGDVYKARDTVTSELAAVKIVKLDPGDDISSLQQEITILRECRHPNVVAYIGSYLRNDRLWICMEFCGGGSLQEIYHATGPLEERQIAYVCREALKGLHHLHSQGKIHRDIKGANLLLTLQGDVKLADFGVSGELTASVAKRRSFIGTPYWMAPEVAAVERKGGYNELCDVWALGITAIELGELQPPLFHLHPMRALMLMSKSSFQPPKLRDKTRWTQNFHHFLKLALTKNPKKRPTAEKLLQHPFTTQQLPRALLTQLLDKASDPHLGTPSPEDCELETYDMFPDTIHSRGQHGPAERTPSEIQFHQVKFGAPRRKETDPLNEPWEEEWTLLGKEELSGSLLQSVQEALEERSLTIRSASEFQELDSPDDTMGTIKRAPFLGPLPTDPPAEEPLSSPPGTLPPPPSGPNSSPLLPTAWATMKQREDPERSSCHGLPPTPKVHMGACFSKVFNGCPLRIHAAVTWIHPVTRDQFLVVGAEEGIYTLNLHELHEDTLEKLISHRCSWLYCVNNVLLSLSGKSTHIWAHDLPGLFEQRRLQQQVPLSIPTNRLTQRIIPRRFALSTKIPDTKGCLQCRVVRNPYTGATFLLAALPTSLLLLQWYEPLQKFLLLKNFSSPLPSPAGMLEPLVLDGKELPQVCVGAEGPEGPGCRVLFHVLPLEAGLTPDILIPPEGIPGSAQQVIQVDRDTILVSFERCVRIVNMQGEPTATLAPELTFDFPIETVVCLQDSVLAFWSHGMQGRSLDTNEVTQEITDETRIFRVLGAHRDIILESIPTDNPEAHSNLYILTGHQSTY
The experiment in a line: Inhibition of GCK (unknown origin) by [33P]-ATP filter binding kinase assay.

For experiment [8], the target named is T3, Mitogen-activated protein kinase kinase kinase 7 (Homo sapiens, UniProt O43318).
T3 sequence (O43318 whole entry): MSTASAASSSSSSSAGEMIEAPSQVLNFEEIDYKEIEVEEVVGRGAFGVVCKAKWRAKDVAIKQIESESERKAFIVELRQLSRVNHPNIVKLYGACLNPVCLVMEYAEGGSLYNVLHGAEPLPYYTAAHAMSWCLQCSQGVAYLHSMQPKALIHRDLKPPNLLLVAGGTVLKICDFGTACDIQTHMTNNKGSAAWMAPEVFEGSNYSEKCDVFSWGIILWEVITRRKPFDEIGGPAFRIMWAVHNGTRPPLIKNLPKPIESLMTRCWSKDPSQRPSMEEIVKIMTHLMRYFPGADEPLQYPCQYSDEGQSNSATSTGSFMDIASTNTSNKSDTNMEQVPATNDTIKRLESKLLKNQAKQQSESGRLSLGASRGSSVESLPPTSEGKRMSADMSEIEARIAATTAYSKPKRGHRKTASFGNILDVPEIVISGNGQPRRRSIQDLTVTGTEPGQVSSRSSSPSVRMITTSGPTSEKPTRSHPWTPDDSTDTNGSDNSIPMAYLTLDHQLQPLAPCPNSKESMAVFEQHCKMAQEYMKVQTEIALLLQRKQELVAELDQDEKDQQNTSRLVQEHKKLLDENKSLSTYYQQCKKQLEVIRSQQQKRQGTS
The experiment in a line: Inhibition of TAK1 (unknown origin) by [33P]-ATP filter binding kinase assay.

Experiment [9] concerns the target Mitogen-activated protein kinase kinase kinase 9 (Homo sapiens, UniProt P80192). As to the kind of experiment: Inhibition of MLK1 (unknown origin) by [33P]-ATP filter binding kinase assay.
Experiment [10] concerns the target Mitogen-activated protein kinase kinase kinase 11 (Homo sapiens, UniProt Q16584). The experiment in a line: Inhibition of MLK3 (unknown origin) by [33P]-ATP filter binding kinase assay.
The target in experiment [11] is Receptor-interacting serine/threonine-protein kinase 2 (Homo sapiens, UniProt O43353). As to the kind of experiment: Inhibition of RIPK2 (unknown origin) by [33P]-ATP filter binding kinase assay.
Chain of Receptor-interacting serine/threonine-protein kinase 2 (O43353 whole entry): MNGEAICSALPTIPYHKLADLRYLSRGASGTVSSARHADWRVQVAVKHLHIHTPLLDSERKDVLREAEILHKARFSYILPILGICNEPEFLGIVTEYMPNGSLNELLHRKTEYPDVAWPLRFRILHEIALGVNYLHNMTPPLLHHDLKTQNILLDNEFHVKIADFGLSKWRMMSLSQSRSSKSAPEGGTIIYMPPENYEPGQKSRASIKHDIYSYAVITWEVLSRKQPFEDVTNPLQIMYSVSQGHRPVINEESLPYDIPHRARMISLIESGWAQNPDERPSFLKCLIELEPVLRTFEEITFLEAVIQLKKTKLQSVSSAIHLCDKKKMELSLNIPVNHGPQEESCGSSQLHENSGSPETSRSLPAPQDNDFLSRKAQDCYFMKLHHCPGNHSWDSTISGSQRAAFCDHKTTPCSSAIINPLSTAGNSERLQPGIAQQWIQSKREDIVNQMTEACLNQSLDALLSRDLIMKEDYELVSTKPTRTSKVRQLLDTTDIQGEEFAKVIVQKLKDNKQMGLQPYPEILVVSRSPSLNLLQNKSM
Another experiment addresses T4, Aurora kinase A (Homo sapiens, UniProt O14965).
T4 sequence (O14965 whole entry): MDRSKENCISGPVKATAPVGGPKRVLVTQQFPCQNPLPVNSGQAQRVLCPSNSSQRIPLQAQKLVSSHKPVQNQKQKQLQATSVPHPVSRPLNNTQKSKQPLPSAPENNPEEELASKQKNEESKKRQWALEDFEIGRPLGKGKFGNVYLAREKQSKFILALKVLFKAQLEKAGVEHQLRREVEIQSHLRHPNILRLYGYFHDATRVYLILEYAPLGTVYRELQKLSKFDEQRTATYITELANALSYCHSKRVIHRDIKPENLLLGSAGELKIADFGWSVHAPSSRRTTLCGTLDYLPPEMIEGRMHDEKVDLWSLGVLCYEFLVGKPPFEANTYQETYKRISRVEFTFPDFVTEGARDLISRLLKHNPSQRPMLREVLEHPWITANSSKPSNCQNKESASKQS
The experiment in a line: Inhibition of Aurora A (unknown origin) by [33P]-ATP filter binding kinase assay.

In a further experiment the target is Aurora kinase B (Homo sapiens, UniProt Q96GD4). As to the kind of experiment: Inhibition of Aurora B (unknown origin) by [33P]-ATP filter binding kinase assay.
Chain of Aurora kinase B (Q96GD4 whole entry): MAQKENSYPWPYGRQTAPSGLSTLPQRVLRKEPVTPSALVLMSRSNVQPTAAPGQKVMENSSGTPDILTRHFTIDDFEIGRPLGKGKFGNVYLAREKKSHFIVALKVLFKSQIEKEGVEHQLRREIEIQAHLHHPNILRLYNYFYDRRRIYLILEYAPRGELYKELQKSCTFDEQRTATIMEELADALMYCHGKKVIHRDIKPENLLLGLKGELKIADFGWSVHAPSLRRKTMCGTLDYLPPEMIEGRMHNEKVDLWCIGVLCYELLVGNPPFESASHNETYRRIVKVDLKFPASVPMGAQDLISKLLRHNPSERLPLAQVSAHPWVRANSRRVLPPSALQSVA
In experiment [12] the target is Cyclin-dependent kinase 9 (Homo sapiens, UniProt P50750). The experiment in a line: Inhibition of CDK9 (unknown origin).

Chain of Mitogen-activated protein kinase kinase kinase 9 (P80192 whole entry): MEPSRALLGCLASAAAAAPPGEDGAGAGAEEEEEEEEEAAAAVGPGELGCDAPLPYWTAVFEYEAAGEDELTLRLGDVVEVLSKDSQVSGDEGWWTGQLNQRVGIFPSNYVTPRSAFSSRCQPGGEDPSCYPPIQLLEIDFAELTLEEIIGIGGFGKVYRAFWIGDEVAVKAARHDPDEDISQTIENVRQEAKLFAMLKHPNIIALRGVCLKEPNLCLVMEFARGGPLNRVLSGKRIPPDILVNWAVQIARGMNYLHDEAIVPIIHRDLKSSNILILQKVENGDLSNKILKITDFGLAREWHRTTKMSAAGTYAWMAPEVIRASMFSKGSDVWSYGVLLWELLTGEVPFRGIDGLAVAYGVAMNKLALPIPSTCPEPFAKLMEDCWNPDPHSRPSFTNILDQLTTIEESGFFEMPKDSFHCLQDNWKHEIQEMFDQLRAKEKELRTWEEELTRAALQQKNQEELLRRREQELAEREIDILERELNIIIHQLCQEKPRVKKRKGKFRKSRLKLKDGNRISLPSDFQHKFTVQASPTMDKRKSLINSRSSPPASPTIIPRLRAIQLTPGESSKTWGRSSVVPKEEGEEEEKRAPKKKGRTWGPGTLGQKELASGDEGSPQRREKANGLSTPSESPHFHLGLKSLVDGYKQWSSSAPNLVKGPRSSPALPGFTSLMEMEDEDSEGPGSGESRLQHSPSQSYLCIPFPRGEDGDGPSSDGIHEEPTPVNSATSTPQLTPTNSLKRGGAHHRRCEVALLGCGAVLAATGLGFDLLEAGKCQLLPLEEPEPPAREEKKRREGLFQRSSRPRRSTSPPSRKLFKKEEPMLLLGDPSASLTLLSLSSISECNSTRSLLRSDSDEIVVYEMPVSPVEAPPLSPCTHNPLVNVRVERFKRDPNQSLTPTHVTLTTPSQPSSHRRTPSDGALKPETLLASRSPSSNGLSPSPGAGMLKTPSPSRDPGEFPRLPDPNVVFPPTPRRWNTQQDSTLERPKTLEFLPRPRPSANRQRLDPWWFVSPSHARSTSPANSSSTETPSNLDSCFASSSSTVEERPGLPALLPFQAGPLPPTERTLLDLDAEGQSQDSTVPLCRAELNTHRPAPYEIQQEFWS
Chain of Mitogen-activated protein kinase kinase kinase 11 (Q16584 whole entry): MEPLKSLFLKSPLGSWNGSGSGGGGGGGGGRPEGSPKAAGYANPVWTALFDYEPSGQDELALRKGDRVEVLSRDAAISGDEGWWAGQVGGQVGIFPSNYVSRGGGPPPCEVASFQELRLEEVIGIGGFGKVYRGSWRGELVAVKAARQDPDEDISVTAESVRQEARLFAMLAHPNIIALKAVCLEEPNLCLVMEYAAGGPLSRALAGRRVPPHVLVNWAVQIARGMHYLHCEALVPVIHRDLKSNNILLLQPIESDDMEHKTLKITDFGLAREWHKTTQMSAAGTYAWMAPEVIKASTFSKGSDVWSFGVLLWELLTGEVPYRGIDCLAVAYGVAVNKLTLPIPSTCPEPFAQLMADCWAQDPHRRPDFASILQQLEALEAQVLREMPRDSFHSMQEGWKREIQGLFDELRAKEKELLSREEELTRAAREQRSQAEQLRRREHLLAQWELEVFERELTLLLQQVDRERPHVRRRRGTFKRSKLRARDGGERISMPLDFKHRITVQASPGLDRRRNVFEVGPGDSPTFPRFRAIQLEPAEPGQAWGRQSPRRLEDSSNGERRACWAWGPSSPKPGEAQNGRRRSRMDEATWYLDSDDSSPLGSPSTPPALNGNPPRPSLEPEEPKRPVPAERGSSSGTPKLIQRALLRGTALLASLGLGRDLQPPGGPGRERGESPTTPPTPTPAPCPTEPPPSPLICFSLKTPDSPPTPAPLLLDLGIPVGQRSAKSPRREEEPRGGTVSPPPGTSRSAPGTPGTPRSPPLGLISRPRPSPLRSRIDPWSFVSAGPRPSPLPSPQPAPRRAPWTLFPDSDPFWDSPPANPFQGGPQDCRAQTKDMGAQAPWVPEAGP

Consider `COc1cc(Br)cc2[nH]c(I)c(-c3cnc(-c4ccc[nH]4)o3)c12`, for which the IC50 in the experiment with MCF7, with MDA-MB-468, in the experiment on SK-BR-3, in the experiment with HT-29, in the experiment on MOLT-4 and in the experiment with MV4-11 was above 10 µM in each case. The IC50 with A2058 is above 10 µM; in the experiment with MRC5, above 10 µM; in experiment [1], above 10 µM; in experiment [2] it was above 10 µM; in [3], 18 µM; in experiment [4], above 10 µM. The IC50 in [5] was above 10 µM; in experiment [6], above 10 µM; in experiment [7], 40 µM; in experiment [8] it was 18 µM; in experiment [9] it was 21 µM; in experiment [10], 19 µM. Moreover, the IC50 in [11] is above 10 µM; at Aurora kinase A it was above 10 µM; at Aurora kinase B it was 31 µM.
As for `COc1cc(Br)cc2[nH]cc(-c3cnc(-c4cc(Br)c[nH]4)o3)c12`, the IC50 with MCF7, with MDA-MB-468, with SK-BR-3, in the experiment with HT-29, in the experiment with MOLT-4 and with MV4-11 was above 10 µM each time. Also, the IC50 in the experiment on A2058 was above 10 µM; in the experiment on MRC5, above 10 µM; in experiment [1] it was above 10 µM; in experiment [2] it was above 10 µM; in experiment [3] it was 43 µM; in experiment [4], above 10 µM. For the same compound, the IC50 in [5] was above 10 µM; in experiment [6], above 10 µM; in experiment [7], above 10 µM; in experiment [8], 36 µM; in [9], 22 µM; in experiment [10], 23 µM. In addition, the IC50 in experiment [11] was above 10 µM; at Aurora kinase A it was above 10 µM; at Aurora kinase B, 7.8 µM.
`Cc1cc(=O)c2c(O)cc(O)c([C@@H]3CCN(C)C[C@@H]3O)c2o1`: 0.3 µM corresponded to half-maximal inhibition in [12] (IC50).
